According to patent US6274616A, “N,N-diethylglycolamido ester prodrugs of indole sPLA2 inhibitors” (Eli Lilly and Company, priority 2000, dated 2001):

Key:
[1] = biological target: recombinant human secreted phospholipase A2; conditions: cited from earlier work
[2] = biological target: recombinant human secreted phospholipase A2; conditions: guinea pig lung tissue; data from U.S. Pat. No. 5,654,326; read-out: Tissue test secreted PLA2 Apparent KB; cited from earlier work
[3] = Assay III: Rat Plasma Pharmacokinetics Study (oral bioavailability); format: in vivo, Rat (Fischer 344)
Experimental: The bioavailability of the compound of the invention, ((3-(2-amino-1,2-dioxoethyl)-1-((1,1'-biphenyl)-3-ylmethyl)-2-methyl-1H-indol-4-yl)oxy)acetic acid N,N-diethylglycolamido ester, was determined using a Rat Plasma Pharmacokinetics Study:
The purpose of this assay was to evaluate and compare the oral delivery for selected sPLA2 inhibitors.
The amount of sPLA2 inhibitor was corrected for free acid equivalents.
Suspension of sPLA2 inhibitor in 10% Acacia, prepared just prior to dose administration
Dose: 10 mg/kg (of the parent acid)
Blood samples (0.8 ml) were obtained at the following times: 0.5, 1, 2, 4, 8 and 24 hours (2 rats/timepoint)
Plasma was assayed by HPLC to measure concentrations of the different sPLA2 inhibitors (as free acids).
Cmax (maximal plasma concentrations), and AUC values were determined from the mean plasma concentration-time profiles.

Structure (SMILES)	IC50 ([1]; chromogenic assay, 3-4 tests, data from U.S. Pat. No. 5,654,326, read-out: Inhibition of human secreted PLA2 IC50 ± mean deviation (3-4 tests))	inhibiting sPLA2 (conclusion in words) ([1]; conclusion of Assay 1, Table I)	Kb [2]	oral bioavailability compared with other esters (in words) ([3]; conclusion from Table 3)	oral bioavailability compared with other esters (in words) ([3]; conclusion from Table 3, listed as compound of formula (I))
Cc1c(C(=O)C(N)=O)c2c(OCC(=O)O)cccc2n1Cc1cccc(-c2ccccc2)c1 [Compound of formula (II), ((3-(2-amino-1,2-dioxoethyl)-1-((1,1'-biphenyl)-3-ylmethyl)-2-methyl-1H-indol-4-yl)oxy)acetic acid]	4.33 ± 2.31 nM	highly active in inhibiting sPLA2	57 ± 11 nM	–	–
CCN(CC)C(=O)COC(=O)COc1cccc2c1c(C(=O)C(N)=O)c(C)n2Cc1cccc(-c2ccccc2)c1 [N,N-diethylglycolamido, ((3-(2-amino-1,2-dioxoethyl)-1-((1,1'-biphenyl)-3-ylmethyl)-2-methyl-1H-indol-4-yl)oxy)acetic acid N,N-diethylglycolamido ester]	–	–	–	unexpectedly more bioavailable than many other esters of the sPLA2 inhibitor	highly bioavailable upon oral administration compared to other common ester type prodrugs
